Results published in patent US20220055989A1, “CONDENSED PYRROLES AS NOVEL BROMODOMAIN INHIBITORS” (ALBERT LUDWING UNIVERSITÄT FREIBURG, priority 2018, published 2022).
Read-outs that look alike come from different tables or passages of the source.

How the values were obtained:
Assay type in all cases: binding
BRPF1 = target: T1, BRPF1 (Homo sapiens, UniProt P55201); experiment: BROMOscan Kd determination BRPF1
T1 construct: T7 phage strains displaying bromodomains were grown; host or cells: T7 phage in E. coli derived from BL21
T1 sequence (P55201 628-732 limits assumed): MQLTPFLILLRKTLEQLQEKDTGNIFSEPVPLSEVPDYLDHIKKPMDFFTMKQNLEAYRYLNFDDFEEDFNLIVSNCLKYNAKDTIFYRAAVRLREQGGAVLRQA
Experimental: (§1) Bromodomain profiling was carried out on the basis of BROMOscan™. This platform accounted for the indirect determination of the dissociation constants between 19 bromodomains and the compound of formula (13), by binding competition against a reference immobilized ligand. Compounds that bind the bromodomain prevent its binding to the immobilized ligand thus reducing the amount of protein captured. […] Hits are identified by measuring the amount of bromodomain captured in test versus control samples. Bromodomain assays for Kd determination: T7 phage strains displaying bromodomains were grown in parallel in 24-well blocks in an E. coli host derived from the BL21 strain. E. coli were grown to log-phase and infected with T7 phage from a frozen stock (multiplicity of infection=0.4) and incubated with shaking at 32° C. until lysis (90-150 minutes). The lysates were centrifuged (5,000×g) and filtered (0.2 μm) to remove cell debris. […] The liganded beads were blocked with excess biotin and washed with blocking buffer (SeaBlock (Pierce), 1% BSA, 0.05% Tween 20, 1 mM DTT) to remove unbound ligand and to reduce non-specific phage binding. […] Test compounds were prepared as 1000× stocks in 100% DMSO. Kds were determined using an 11-point 3-fold compound dilution series with one DMSO control point. All compounds for Kd measurements are distributed by acoustic transfer (non-contact dispensing) in 100% DMSO. The compounds were then diluted directly into the assays such that the final concentration of DMSO was 0.09%. All reactions performed in polypropylene 384-well plates. Each was a final volume of 0.02 ml. […] The bromodomain concentration in the eluates was measured by qPCR. […] All compounds for Kd measurements are distributed by acoustic transfer (non-contact dispensing) in 100% DMSO. The compounds were then diluted directly into the assays such that the final concentration of DMSO was 0.09%. Most Kds were determined using a compound top concentration=10,000 nM. If the initial Kd determined was <0.169 nM (the lowest concentration tested), the measurement was repeated with a serial dilution starting at a lower top concentration. Binding Constants (Kds): Binding constants (Kds) were calculated with a standard dose-response curve using the Hill equation: The Hill Slope was set to −1. Curves were fitted using a non-linear least square fit with the Levenberg-Marquardt algorithm.

BRDT(1) = target: T2, BRDT(1) (Homo sapiens, UniProt Q58F21); experiment: BROMOscan Kd determination BRDT(1)
T2 construct: T7 phage strains displaying bromodomains were grown; host or cells: T7 phage in E. coli derived from BL21
Experimental: as §1

BRD4(1) [1] = target: T3, BRD4(1) (Homo sapiens, UniProt O60885); experiment: Isothermal titration calorimetry, dissociation constant KD BRD4(1)
T3 construct: BRD4-BD1 was expressed and purified as described previously; made in house
Experimental: BRD4-BD1 was expressed and purified as described previously (Filippakopoulos et al, (2012), Cell 149(1): […]) with the exception of the final buffer for crystallization and ITC analysis (20 mM Hepes/NaOH pH 7.5, 150 mM NaCl). Crystals were grown in the presence of 3.5 M Na-Formate (pH 7.5) at a protein concentration of 10 mg/ml and a ligand concentration of 2 mM added directly to the protein prior to crystallization from a 100 mM stock solution in DMSO. Data were collected at 100K using either a Rigaku HF-007 rotating anode X-ray generator equipped with VariMaxHF optics and a Saturn944 CCD detector or a mar345 image plate respectively at λ=1.54179 Å or at the PXI beamline at the Swiss Light Source at λ=1.000 Å with a Pilatus detector. Data processing and reduction was done with iMOSFLM (Leslie AGW PH (2007), Evolving Methods for Macromolecular Crystallography 245, 41.51), POINTLESS, and SCALA (Kabsch W (2010) Xds. Acta crystallographica. Section D, Biological crystallography 66(Pt 2):125-132; Bruker (2008) SADABS, SAINT and XPREP (Bruker AXS Inc., Madison, Wis., USA); Collaborative Computational Project N (1994) The CCP4 suite: programs for protein crystallography, Acta crystallographica, Section D, Biological crystallography 50(Pt 5):760-763), or with XDS, XSCALE, XDSCONV (Evans P (2006), Scaling and assessment of data quality, Acta crystallographica, Section D, Biological crystallography 62(Pt 1):72-82), and XPREP (Evans P R (2011), An introduction to data reduction: space-group determination, scaling and intensity statistics, Acta crystallographica, Section D, Biological crystallography 67(Pt 4):282-292).
Data were obtained in discrete titration experiments with an injection volume of 12 μl per injection. Subsequently, the heats per injection were calculated as integrals and after normalization against the molar concentrations plotted against the molar ratio as implemented in Microcal Origin. Finally, data were fitted according to a single set of sites binding model with
The dissociation constant Kd, is commonly used to describe the affinity between a ligand L and a protein, i.e. how tightly a ligand binds to a particular protein. The dissociation constant has molar units which correspond to the concentration of ligand at which the binding site on a particular protein is half occupied, i.e. the concentration of the ligand at which the concentration of protein with ligand bound equals the concentration of protein with no ligand bound. The smaller the dissociation constant, the higher the affinity between ligand and protein.

BRD7 = target: T4, BRD7 (Homo sapiens, UniProt Q9NPI1); experiment: BROMOscan Kd determination BRD7
T4 construct: T7 phage strains displaying bromodomains were grown; host or cells: T7 phage in E. coli derived from BL21
T4 sequence (Q9NPI1 131-235 limits assumed): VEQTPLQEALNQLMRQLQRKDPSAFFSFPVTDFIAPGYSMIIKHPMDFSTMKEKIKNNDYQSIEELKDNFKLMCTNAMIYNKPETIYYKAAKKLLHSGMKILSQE
Experimental: as §1

BRDT(2) = target: T5, BRDT(2) (Homo sapiens, UniProt Q58F21); experiment: BROMOscan Kd determination BRDT(2)
T5 construct: T7 phage strains displaying bromodomains were grown; host or cells: T7 phage in E. coli derived from BL21
Experimental: Bromodomain profiling was carried out on the basis of BROMOscan™. This platform accounted for the indirect determination of the dissociation constants between 19 bromodomains and the compound of formula (13), by binding competition against a reference immobilized ligand. Compounds that bind the bromodomain prevent its binding to the immobilized ligand thus reducing the amount of protein captured. […] Hits are identified by measuring the amount of bromodomain captured in test versus control samples. Bromodomain assays for Kd determination: T7 phage strains displaying bromodomains were grown in parallel in 24-well blocks in an E. coli host derived from the BL21 strain. E. coli were grown to log-phase and infected with T7 phage from a frozen stock (multiplicity of infection=0.4) and incubated with shaking at 32° C. until lysis (90-150 minutes). The lysates were centrifuged (5,000×g) and filtered (0.2 μm) to remove cell debris. […] Kds were determined using an 11-point 3-fold compound dilution series with one DMSO control point. […] The bromodomain concentration in the eluates was measured by qPCR. […] Most Kds were determined using a compound top concentration=10,000 nM. […] Binding Constants (Kds): Binding constants (Kds) were calculated with a standard dose-response curve using the Hill equation: The Hill Slope was set to −1. […]

BRD4(1) [2] = target: T3, BRD4(1); experiment: BROMOscan Kd determination BRD4(1)
Experimental: as §1

BRD9 = target: T6, BRD9 (Homo sapiens, UniProt Q9H8M2); experiment: BROMOscan Kd determination BRD9
T6 construct: T7 phage strains displaying bromodomains were grown; host or cells: T7 phage in E. coli derived from BL21
T6 sequence (Q9H8M2 136-240 limits assumed): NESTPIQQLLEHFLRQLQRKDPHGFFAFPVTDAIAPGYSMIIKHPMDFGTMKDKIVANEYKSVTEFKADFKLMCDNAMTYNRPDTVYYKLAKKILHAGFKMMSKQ
Experimental: as §1

CECR2 = target: T7, CECR2 (Homo sapiens, UniProt Q9BXF3); experiment: BROMOscan Kd determination CECR2
T7 construct: T7 phage strains displaying bromodomains were grown; host or cells: T7 phage in E. coli derived from BL21
T7 sequence (Q9BXF3 434-538 limits assumed): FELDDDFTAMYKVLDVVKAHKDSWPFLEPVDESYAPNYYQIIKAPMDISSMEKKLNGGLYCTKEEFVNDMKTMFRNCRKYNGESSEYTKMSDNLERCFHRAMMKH
Experimental: as §1

BRPF1B = target: T8, BRPF1B (Homo sapiens, UniProt P55201); experiment: Dissociation constant KD BRPF1B
T8 construct: dissociation constants KD for two bromodomains (BRD4(1) and BRPF1B)
T8 sequence (P55201 628-732 limits assumed): T1 sequence (P55201 628-732 limits assumed)

Compound	Kd (BRPF1) [nM]	Kd (BRDT(1)) [nM]	Kd (BRD4(1) [1]) [nM]	Kd (BRD7) [nM]	Kd (BRDT(2)) [nM]	Kd (BRD4(1) [2]) [nM]	Kd (BRD9) [nM]	Kd (CECR2) [nM]	Kd (BRPF1B) [nM]	Kd (BRPF1; Table 3 compound 27) [nM]	Kd (CECR2; Table 3 compound 27) [nM]	Kd (BRDT(1); Table 3 compound 27) [nM]	Kd (BRD7; Table 3 compound 27) [nM]	Kd (BRD4(1) [2]; Table 3 compound 27) [nM]	Kd (BRD9; Table 3 compound 27) [nM]
COc1ccc(S(=O)(=O)N2CCOCC2)cc1NC(=O)c1[nH]c(C)c2c1CCCCC2=O [Compound 13, N-(2-methoxy-5-(morpholinosulfonyl)phenyl)-3-methyl-4-oxo-2,4,5,6,7,8-hexahydrocyclohepta[c]pyrrole-1-carboxamide]	520	670	77.8	85	1000	60	67	–	–	–	–	–	–	–	–
CCCc1[nH]c(-c2cc(N)ccc2Cl)c2c1C(=O)CCCC2 [Compound 26, 1-(5-Amino-2-chlorophenyl)-3-propyl-5,6,7,8-tetrahydrocyclohepta[c]pyrrol-4(2H)-one]	7000	6100	6900	1100	–	6900	150	> 10000	7000	–	–	–	–	–	–
CCCCc1[nH]c(-c2cc(N)ccc2Cl)c2c1C(=O)CCCC2 [Compound 27, 1-(5-Amino-2-chlorophenyl)-3-butyl-5,6,7,8-tetrahydrocyclohepta[c]pyrrol-4(2H)-one]	–	–	> 10000	–	–	–	–	–	> 10000	> 10000	> 10000	> 10000	> 10000	> 10000	800
Cc1[nH]c(-c2cc(N)ccc2Cl)c2c1C(=O)CCCC2 [Compound 23]	130	240	–	430	620	250	67	970	166	–	–	–	–	–	–
